The subject of data set [1] is σ2 receptors. Description: PDSP binding study, σ2 receptors. The following applies: versus the other four hits of the primary screen.
A short description of data set [2]: Solubility, shake-flask method. The data set is classed as physicochemical. As to conditions: thermodynamic from solid. As to the method:
The solubility of CW-02-79 in selected oils, organic solvents, and water solutions of various pH values was examined by using the shake-flask method, by adding an excess amount of CW-02-79. The blends were mixed on a vortex mixer for 24 h at 25 ± 2 °C to reach equilibrium. The samples were centrifuged (1000× g, 10 min, 25 °C) on a MiniSpin® plus centrifuge (Eppendorf, Hamburg, Germany). The concentration of CW-02-79 was determined after proper dilution of the supernatant with isopropanol using the LC-MS/MS method.
The concentration of CW-02-79 was determined using a LC-MS/MS method. The analysis was performed on a UHPLC chromatograph ACELLA (Thermo Fisher Scientific Inc., Madison, WI, USA), coupled to a triple quadrupole mass spectrometer TSQ Quantum Access MAX (Thermo Fisher Scientific Inc., Madison, WI, USA) with a heated electrospray ionization (HESI) interface. The column was XTerra MS C18 (150 mm × 2.1 mm, […] particle size). The mobile phase was acetonitrile/0.1% formic acid = 70:30 (v/v), the flow rate was 0.2 mL min^−1, the column temperature was set to 35 °C, and the injection volume was 10 µL. CW-02-79 and the internal standard were detected and quantified in the positive HESI mode (m/z = 389.90–345.90 and m/z = 349.00–304.11, respectively).

Data set [3] in a line: In vitro permeation through iPSC-derived blood–brain barrier model. The data set is classed as in vitro ADME, human. As to conditions: inserts without cells; read-out: recovery of CW-02-79 without cells.
Text: The in vitro BBB model based on the co-culture of iPSC-derived brain microvascular endothelial cells, astrocytes, and pericytes was used to estimate the transport of CW-02-79 into the brain from the developed nanoemulsions (the protocol used is available on the manufacturer’s website: iCell Blood Brain Barrier Isogenic Kit protocol, FujiFilm Cellular Dynamic Inc., Madison, WI, USA) [24]. Cell culture inserts for BBB co-cultures (pore size 0.4 µm, effective cell growth area 0.33 cm^2, Falcon®, Corning Inc., Salt Lake City, UT, USA) were coated on the apical side with a fibronectin-collagen IV matrix and on the basolateral side with a 0.1% gelatin solution. Then, astrocyte and pericyte suspensions were seeded on the basolateral side, with brain microvascular endothelial cells in the apical region of inserts, followed by overnight incubation at 37 °C and 5% CO2. […]
The total volume on the basolateral side was compensated with 100 µL of the fresh termostated medium. […] The mass balance (%) was also determined based on the amount of CW-02-79 determined in both the apical and basolateral compartments at the end of the assay divided by the total amount of CW-02-79 placed in the apical compartment to assess the potential adsorption to plastic or non-specific binding to cells.
Data set [4] deals with σ2 receptors. Details: method as in PDSP Ki database https://pdspdb.unc.edu/databases/kidb.php. The following applies: ref PDSP Ki database https://pdspdb.unc.edu/databases/kidb.php; cited from earlier work.
Data set [5] concerns the target 5-HT7 receptor. Further details: method as in PDSP Ki database https://pdspdb.unc.edu/databases/kidb.php. The following applies: ref PDSP Ki database https://pdspdb.unc.edu/databases/kidb.php; cited from earlier work.
Data set [6] concerns the target benzodiazepine binding site at GABAA receptors. Further details: method as in PDSP Ki database https://pdspdb.unc.edu/databases/kidb.php. The following applies: ref PDSP Ki database https://pdspdb.unc.edu/databases/kidb.php; cited from earlier work.
Data set [7] has as its target histamine H2 receptor. Details: method as in PDSP Ki database https://pdspdb.unc.edu/databases/kidb.php. The following applies: ref PDSP Ki database https://pdspdb.unc.edu/databases/kidb.php; cited from earlier work.
Data set [8] addresses dopamine transporter. Details: method as in PDSP Ki database https://pdspdb.unc.edu/databases/kidb.php. The following applies: ref PDSP Ki database https://pdspdb.unc.edu/databases/kidb.php; cited from earlier work.
Data set [9] has as its system GABAA receptors that contain any of the α1 to α6 subunits. Details: method as in personal communication with Dr. Janet Fisher. The following applies: 10 µM; ref personal communication with Dr. Janet Fisher; cited from earlier work.
On the set-up of data set [10]: method as in unpublished data, MM Savić and B Divović Matović. The following applies: doses 1 to 30 mg/kg; ref unpublished data, MM Savić and B Divović Matović; cited from earlier work.

Values after ≈ are worked out from the molar mass of the structure shown.

These results are taken from PMC11858841, “Intravenous Nanoemulsions Loaded with Phospholipid Complex of a Novel Pyrazoloquinolinone Ligand for Enhanced Brain Delivery” (Pharmaceutics, 2025).

Take `COc1ccc2c3nn(-c4ccc(OC(F)(F)F)cc4)c(=O)c-3c[nH]c2c1C` [CW-02-79, 7-methoxy-6-methyl-2-(4-(trifluoromethoxy)phenyl)-2,5-dihydro-3H-pyrazolo [4,3-c]quinolin-3-one]: the “selectivity for σ2 receptors” value in data set [1] was no less than 20 fold. Also, the solubility at 24 h is 11.8 ± 0.7 µg/mL (≈ 30.3 µM) in [2] (aqueous buffer, Phosphate buffer, pH 7.4, 25 °C); 27.96 ± 0.03 µg/mL (≈ 71.8 µM) in [2] (oil or lipid, Castor oil, 25 °C); 34.19 ± 0.06 µg/mL (≈ 87.8 µM) in [2] (oil or lipid, Fish oil, 25 °C); 49.93 ± 0.07 µg/mL (≈ 128 µM) in data set [2] (oil or lipid, MCT, 25 °C); 218.4 ± 0.3 µg/mL (≈ 561 µM) in data set [2] (oil or lipid, MCT:castor oil (1:1, w/w), 25 °C); 41.41 ± 0.04 µg/mL (≈ 106 µM) in [2] (oil or lipid, MCT:soybean oil (1:1, w/w), 25 °C). In addition, the solubility at 24 h in [2] (oil or lipid, Soybean oil, 25 °C) was 65.68 ± 0.43 µg/mL (≈ 169 µM); in data set [2] (organic solvent or mixture, DMSO, 25 °C), greater than 30000 µg/mL; in data set [2] (organic solvent or mixture, Isopropanol, 25 °C) it was 5750 µg/mL (≈ 14800 µM); in data set [2] (organic solvent or mixture, Methanol, 25 °C), 939.1 ± 3.53 µg/mL (≈ 2410 µM); in data set [2] (simulated gastric fluid, 0.1M HCl, 25 °C) it was 12.3 ± 0.61 µg/mL (≈ 31.7 µM); in [2] (Ultrapure water, 25 °C), 11.8 ± 0.2 µg/mL (≈ 30.2 µM). In addition, in [3], the recovery at 24 h, 3 µM was roughly 100%. Moreover, the Ki in [4] is 0.112 µM; in [5] it was 2.4 µM; in [6], 4.7 µM; in [7] it was 5.2 µM; in data set [8] it was greater than 10 µM. In data set [9], the “modulation of GABAA receptors” value is reported as “does not at all modulate”. Further, in data set [10], the “signs of sedation or motor incapacitation” value is “no signs of sedation or motor incapacitation”.
